Columns and labels:
Test in all cases: KINOMEscan competition binding
[1] = target: ABL1-phosphorylated (Homo sapiens, UniProt P00519); details: read-out: %Inh ABL1-phosphorylated
[2] = target: T1, ANKK1 (Homo sapiens, UniProt Q8NFD2); details: read-out: %Inh ANKK1
T1 sequence (Q8NFD2 1-765): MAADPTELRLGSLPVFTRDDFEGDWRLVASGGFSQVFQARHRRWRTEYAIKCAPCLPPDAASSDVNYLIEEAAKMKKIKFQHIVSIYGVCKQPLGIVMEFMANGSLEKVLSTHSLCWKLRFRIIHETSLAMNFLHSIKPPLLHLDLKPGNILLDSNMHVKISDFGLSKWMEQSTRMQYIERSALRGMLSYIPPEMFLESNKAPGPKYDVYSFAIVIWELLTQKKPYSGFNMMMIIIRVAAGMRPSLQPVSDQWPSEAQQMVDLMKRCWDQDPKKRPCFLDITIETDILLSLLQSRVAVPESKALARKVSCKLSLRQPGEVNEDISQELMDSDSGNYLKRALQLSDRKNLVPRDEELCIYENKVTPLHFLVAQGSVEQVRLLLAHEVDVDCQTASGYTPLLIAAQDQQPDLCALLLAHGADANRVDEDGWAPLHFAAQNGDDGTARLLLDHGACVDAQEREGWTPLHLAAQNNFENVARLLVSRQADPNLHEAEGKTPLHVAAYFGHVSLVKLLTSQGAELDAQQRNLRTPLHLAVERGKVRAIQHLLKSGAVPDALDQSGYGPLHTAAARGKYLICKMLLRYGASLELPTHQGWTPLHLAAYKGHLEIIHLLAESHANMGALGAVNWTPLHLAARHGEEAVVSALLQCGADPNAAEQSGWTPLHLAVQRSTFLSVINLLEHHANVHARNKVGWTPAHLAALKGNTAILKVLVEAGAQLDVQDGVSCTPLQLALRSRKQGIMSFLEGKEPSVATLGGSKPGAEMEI

[3] = target: AURKB (Homo sapiens, UniProt Q96GD4); details: read-out: %Inh AURKB
[4] = target: T2, CAMK4 (Homo sapiens, UniProt Q16566); details: read-out: %Inh CAMK4
T2 sequence (Q16566 1-473): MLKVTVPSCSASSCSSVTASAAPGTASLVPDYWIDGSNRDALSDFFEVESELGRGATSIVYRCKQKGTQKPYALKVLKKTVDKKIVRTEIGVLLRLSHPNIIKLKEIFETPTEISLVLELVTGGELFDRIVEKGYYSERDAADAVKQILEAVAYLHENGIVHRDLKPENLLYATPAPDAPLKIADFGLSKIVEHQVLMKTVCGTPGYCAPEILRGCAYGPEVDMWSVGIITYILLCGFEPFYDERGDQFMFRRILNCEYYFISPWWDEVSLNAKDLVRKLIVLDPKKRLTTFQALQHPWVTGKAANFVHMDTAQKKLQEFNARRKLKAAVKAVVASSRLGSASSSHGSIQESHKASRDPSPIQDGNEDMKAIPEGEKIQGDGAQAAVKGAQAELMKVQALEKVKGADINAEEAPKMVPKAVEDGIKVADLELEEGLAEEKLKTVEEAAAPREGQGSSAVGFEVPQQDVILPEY

[5] = target: T3, CDC2L2 (Homo sapiens, UniProt Q9UQ88); details: read-out: %Inh CDC2L2
T3 sequence (Q9UQ88 1-783): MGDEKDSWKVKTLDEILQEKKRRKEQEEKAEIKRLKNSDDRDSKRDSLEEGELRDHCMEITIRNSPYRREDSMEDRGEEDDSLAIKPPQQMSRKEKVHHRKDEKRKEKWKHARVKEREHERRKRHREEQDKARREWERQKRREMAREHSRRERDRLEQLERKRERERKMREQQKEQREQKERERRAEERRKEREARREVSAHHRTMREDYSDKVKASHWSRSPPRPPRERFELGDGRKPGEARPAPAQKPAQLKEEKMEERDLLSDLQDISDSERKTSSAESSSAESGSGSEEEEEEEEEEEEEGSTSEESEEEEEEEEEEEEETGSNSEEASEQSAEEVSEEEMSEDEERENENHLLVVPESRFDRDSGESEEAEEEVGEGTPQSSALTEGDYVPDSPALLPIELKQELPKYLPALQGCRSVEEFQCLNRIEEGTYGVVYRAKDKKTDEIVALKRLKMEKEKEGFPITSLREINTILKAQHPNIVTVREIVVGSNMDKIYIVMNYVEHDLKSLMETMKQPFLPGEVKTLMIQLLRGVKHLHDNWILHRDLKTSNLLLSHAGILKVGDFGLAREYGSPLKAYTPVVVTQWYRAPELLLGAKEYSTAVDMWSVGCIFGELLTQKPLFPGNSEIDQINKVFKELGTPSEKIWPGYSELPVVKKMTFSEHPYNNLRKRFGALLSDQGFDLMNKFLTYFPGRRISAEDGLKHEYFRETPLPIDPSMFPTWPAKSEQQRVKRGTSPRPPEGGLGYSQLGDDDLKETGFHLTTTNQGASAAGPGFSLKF

[6] = target: CLK3 (Homo sapiens, UniProt P49761); details: read-out: %Inh CLK3
[7] = target: DYRK1B (Homo sapiens, UniProt Q9Y463); details: read-out: %Inh DYRK1B
[8] = target: FER (Homo sapiens, UniProt P16591); details: read-out: %Inh FER
[9] = target: FES (Homo sapiens, UniProt P07332); details: read-out: %Inh FES
[10] = target: FGFR2 (Homo sapiens, UniProt P21802); details: read-out: %Inh FGFR2
[11] = target: JAK3(JH1domain-catalytic) (Homo sapiens, UniProt P52333); details: read-out: %Inh JAK3(JH1domain-catalytic)
[12] = target: JNK1 (Homo sapiens, UniProt P45983); details: read-out: %Inh JNK1
[13] = target: LIMK2 (Homo sapiens, UniProt P53671); details: read-out: %Inh LIMK2
LIMK2, sequence (P53671 whole entry): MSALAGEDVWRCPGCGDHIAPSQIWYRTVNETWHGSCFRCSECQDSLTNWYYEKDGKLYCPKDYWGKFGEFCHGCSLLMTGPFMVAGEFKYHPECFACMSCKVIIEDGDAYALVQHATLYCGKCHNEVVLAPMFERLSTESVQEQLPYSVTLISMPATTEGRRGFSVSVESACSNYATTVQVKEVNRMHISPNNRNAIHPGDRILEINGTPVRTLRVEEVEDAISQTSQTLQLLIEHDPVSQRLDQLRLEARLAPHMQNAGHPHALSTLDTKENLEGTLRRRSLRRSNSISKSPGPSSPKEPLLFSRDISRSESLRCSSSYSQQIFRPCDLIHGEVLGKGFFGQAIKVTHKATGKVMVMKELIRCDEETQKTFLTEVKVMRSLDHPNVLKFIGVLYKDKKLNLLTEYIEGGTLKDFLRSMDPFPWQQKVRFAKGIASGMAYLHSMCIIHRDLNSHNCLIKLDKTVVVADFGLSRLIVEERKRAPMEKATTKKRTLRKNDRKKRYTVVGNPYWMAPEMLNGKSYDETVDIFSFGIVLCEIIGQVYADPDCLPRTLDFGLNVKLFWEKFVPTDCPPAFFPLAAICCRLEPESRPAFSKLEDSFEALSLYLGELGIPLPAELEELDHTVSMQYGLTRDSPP

CLK3, sequence (P49761 whole entry): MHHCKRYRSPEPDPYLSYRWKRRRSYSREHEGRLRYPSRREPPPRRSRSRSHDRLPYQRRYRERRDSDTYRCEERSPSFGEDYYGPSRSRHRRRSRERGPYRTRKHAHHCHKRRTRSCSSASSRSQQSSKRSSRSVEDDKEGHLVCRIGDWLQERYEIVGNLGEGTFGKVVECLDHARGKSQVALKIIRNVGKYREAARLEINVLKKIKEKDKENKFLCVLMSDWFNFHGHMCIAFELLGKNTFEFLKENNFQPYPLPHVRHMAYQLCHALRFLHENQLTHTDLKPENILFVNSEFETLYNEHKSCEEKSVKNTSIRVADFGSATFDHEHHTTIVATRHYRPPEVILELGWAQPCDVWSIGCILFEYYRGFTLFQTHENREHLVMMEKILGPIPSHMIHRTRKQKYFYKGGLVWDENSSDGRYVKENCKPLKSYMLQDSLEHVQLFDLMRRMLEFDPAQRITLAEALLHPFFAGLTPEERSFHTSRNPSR
FER, sequence (P16591 whole entry): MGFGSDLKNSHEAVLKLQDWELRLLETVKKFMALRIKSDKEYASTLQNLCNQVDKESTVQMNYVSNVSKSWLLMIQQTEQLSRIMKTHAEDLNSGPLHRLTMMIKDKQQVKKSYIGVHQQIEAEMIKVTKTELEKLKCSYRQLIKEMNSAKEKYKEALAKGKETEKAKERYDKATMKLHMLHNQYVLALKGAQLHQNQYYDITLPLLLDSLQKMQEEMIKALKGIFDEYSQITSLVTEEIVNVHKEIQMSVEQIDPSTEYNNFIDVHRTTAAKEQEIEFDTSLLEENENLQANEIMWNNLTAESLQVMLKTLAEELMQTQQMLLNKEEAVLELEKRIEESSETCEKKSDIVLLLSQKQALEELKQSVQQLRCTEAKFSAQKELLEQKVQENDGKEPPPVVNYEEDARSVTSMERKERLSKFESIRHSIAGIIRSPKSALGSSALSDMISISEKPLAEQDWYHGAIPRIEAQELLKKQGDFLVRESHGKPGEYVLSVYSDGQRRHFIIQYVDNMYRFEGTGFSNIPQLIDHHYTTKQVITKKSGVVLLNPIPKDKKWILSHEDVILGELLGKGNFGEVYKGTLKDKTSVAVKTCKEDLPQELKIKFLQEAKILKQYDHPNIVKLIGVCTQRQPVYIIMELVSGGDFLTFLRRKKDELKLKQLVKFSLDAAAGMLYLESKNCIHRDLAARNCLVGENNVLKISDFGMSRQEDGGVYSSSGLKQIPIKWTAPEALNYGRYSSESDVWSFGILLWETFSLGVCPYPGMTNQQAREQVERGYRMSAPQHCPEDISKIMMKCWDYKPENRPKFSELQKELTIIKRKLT
FES, sequence (P07332 whole entry): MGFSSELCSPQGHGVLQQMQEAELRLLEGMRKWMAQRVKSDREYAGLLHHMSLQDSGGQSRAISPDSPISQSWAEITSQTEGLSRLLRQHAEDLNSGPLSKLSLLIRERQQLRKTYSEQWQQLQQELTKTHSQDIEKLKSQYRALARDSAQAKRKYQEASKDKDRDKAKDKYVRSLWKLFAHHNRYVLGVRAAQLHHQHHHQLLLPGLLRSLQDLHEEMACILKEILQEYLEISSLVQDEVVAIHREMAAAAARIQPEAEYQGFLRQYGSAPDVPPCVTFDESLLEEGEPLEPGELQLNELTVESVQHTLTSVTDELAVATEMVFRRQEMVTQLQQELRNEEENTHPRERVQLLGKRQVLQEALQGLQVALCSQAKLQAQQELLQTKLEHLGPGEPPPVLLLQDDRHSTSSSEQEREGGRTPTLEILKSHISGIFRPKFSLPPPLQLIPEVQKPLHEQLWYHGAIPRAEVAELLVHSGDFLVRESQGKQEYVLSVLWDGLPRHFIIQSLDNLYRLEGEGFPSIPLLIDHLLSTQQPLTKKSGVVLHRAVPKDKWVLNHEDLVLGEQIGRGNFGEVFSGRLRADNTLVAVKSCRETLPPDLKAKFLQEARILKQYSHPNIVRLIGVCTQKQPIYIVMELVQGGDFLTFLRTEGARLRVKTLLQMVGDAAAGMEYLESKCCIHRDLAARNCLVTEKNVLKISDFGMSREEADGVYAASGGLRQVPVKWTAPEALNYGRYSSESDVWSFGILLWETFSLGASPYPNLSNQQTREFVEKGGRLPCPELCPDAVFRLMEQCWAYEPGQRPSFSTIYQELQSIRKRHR
DYRK1B, sequence (Q9Y463 whole entry): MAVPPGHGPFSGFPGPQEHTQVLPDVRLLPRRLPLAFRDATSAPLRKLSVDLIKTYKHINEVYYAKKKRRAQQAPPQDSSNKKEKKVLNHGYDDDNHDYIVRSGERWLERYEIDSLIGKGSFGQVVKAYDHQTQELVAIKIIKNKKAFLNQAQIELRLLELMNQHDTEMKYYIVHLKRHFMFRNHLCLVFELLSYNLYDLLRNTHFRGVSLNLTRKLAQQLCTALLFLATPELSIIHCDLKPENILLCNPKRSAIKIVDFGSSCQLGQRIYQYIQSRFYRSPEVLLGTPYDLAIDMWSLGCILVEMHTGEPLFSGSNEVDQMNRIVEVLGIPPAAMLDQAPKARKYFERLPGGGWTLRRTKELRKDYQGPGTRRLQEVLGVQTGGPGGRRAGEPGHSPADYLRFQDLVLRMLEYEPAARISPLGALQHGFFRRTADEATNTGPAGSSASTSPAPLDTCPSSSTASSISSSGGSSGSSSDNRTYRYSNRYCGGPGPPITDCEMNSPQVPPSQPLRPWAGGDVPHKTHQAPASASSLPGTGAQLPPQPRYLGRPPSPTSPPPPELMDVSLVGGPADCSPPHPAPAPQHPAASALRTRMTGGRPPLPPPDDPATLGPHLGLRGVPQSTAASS
JNK1, sequence (P45983 whole entry): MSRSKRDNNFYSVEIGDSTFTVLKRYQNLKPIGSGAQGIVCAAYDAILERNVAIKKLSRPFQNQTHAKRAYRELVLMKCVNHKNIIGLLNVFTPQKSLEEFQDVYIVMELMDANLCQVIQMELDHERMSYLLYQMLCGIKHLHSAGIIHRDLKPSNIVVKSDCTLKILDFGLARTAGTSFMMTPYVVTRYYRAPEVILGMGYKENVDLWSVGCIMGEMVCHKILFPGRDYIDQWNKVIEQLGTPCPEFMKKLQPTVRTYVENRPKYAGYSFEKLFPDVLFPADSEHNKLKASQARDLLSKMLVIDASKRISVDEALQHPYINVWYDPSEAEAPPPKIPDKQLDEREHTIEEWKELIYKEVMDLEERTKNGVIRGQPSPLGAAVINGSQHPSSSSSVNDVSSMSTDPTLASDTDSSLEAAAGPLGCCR
ABL1-phosphorylated, sequence (P00519 whole entry): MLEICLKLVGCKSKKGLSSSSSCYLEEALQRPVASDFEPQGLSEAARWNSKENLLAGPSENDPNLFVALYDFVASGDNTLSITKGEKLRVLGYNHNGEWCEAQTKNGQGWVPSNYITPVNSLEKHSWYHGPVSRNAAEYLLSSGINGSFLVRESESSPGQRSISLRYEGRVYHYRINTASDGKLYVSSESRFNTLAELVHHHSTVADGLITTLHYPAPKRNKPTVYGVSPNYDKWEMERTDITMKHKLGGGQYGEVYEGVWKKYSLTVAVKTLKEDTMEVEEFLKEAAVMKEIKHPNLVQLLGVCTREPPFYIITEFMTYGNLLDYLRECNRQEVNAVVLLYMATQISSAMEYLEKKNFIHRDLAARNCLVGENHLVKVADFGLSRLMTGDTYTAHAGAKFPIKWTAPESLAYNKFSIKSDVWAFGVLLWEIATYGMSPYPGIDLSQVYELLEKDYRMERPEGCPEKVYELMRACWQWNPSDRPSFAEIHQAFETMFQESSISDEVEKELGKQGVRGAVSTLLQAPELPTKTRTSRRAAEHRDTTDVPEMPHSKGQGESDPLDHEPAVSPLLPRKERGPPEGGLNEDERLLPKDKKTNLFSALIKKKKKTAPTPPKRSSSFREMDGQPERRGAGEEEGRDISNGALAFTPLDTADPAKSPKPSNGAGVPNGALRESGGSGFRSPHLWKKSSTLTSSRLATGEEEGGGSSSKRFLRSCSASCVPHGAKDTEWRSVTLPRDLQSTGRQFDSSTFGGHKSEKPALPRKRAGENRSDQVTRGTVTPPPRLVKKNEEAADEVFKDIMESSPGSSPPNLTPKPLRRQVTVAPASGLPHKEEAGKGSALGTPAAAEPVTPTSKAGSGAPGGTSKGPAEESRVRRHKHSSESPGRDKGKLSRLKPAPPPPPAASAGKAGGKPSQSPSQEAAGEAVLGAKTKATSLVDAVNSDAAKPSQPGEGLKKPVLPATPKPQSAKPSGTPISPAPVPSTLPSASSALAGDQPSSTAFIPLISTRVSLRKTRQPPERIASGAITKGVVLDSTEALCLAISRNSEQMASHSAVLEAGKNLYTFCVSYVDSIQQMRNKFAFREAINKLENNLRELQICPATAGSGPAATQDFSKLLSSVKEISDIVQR

| Compound | inhibition at 1 µM [1] [%] | inhibition at 1 µM [2] [%] | inhibition at 1 µM [3] [%] | inhibition at 1 µM [4] [%] | inhibition at 1 µM [5] [%] | inhibition at 1 µM [6] [%] | inhibition at 1 µM [7] [%] | inhibition at 1 µM [8] [%] | inhibition at 1 µM [9] [%] | inhibition at 1 µM [10] [%] | inhibition at 1 µM [11] [%] | inhibition at 1 µM [12] [%] | inhibition at 1 µM [13] [%] |
| --- | --- | --- | --- | --- | --- | --- | --- | --- | --- | --- | --- | --- | --- |
| CS(=O)(=O)Cc1ccc(Nc2nccc(-c3c(-c4cccc(NC(=O)C5CCCCC5)c4)nn4ncccc34)n2)cc1 [UNC10225159A] | 15 | 0 | 15 | 0 | 27 | 24 | 0 | 8 | 0 | 41 | 43 | 43 | 14 |
| Cn1cc(-c2cnc(N)c3c(-c4ccc5c(c4)CCN5C(=O)Cc4ccccc4)csc23)cn1 [UNC10225012A] | 89 | 0 | 97.8 | 0 | 1 | 0 | 0 | 10 | 14 | 40 | 0 | 13 | 55 |
| O=c1cc(N2CCOCC2)nc2n(Cc3cccc(Cl)c3Cl)c(C3CC3)nn12 [UNC10225469A] | 20 | 0 | 4 | 5 | 0 | 14 | 0 | 3 | 15 | 1 | 0 | 19 | 8 |
| COc1cccc(OC)c1C(=O)Nc1cccc(-c2nn3ccccc3c2-c2ccnc(Nc3cccc(F)c3)n2)c1 [UNC10225310A] | 18 | 93.2 | 0 | 0 | 0 | 0 | 24 | 24 | 20 | 0 | 0 | 44 | 15 |
| Cc1ccc(NC(=O)Nc2cccc(C(F)(F)F)c2)cc1 [UNC10225187A] | 23 | 0 | 0 | 5 | 0 | 0 | 0 | 0 | 0 | 0 | 0 | 58 | 10 |

Source: article PMC5540273, “Progress towards a public chemogenomic set for protein kinases and a call for contributions” (PLoS ONE, 2017)
